We go through nine compounds from US6858597B2, “Halogenated sulphamate-, phosphonate-, thiophosphonate-, sulphonate- and sulphonamide- compounds as inhibitors of steroid sulphatase” (Sterix Limited, priority 1999, dated 2005).

One series relates to rats. Conditions: cited from earlier work.
For the next series, the target named is T1, steroid sulphatase (Homo sapiens, UniProt P08842).
T1 sequence (P08842 22-583): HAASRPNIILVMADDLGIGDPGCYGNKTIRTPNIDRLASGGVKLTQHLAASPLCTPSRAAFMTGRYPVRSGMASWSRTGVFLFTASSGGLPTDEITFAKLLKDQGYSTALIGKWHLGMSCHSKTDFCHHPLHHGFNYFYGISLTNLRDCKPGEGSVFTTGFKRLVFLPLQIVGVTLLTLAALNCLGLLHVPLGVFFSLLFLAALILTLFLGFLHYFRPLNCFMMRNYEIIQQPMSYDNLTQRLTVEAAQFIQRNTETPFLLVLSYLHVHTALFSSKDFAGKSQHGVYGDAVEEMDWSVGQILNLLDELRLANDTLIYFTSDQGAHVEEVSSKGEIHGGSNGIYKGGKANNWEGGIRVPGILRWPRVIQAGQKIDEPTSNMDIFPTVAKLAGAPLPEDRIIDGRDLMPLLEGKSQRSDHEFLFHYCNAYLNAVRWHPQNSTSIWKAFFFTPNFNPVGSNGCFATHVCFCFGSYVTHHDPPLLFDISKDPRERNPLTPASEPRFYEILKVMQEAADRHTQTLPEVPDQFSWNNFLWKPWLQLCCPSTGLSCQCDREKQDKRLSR
Conditions: compared with EMATE, cited from earlier work; for E1-STS inactivation: 3-O-atom replaced by other heteroatoms.

For a further series, the target named is T2, steroid sulphatase (STS) (Homo sapiens, UniProt P08842).
T2 construct: Placental microsomes were obtained by centrifugation of the resulting supernatant at 100,000×g for 1 h; from tissue; host or cells: human placenta (microsomes)
T2 sequence (P08842 22-583): T1 sequence (P08842 22-583)
The experiment in a line: STS inhibition, IC50 (protocol not given). Conditions: assay not given. In kind it is biochemical. As for the experimental part:
Sulphatase-positive human placenta from normal term pregnancies are thoroughly minced with scissors and washed once with cold phosphate buffer (pH 7.4, 50 mM) then re-suspended in cold phosphate buffer (5 ml/g tissue). Homogenisation is accomplished with an Ultra-Turrax homogeniser, using three 10 second bursts separated by 2 minute cooling periods in ice. Nuclei and cell debris are removed by centrifuging (4° C.) at 2000 g for 30 minutes and portions (2 ml) of the supernatant are stored at […] The protein concentration of the supernatants is determined by the method of Bradford (Anal. Biochem., 72, 248-254 (1976)).
Incubations (1 ml) are carried out using a protein concentration of […], substrate concentration of […] [6,7-3H]oestrone-3-sulphate (specific activity 60 Ci/mmol from New England Nuclear, Boston, Mass., U.S.A.) and an incubation time of 20 minutes at 37° C. If necessary eight concentrations of compounds are employed: 0 (i.e. control); 0.05 mM; 0.1 mM; 0.2 mM; 0.4 mM; 0.6 mM; 0.8 mM; 1.0 mM. After incubation each sample is cooled and the medium (1 ml) was pipetted into separate tubes containing [14C]oestrone (7×10^3 dpm) (specific activity 97 Ci/mmol from Amersham International Radiochemical Centre, Amersham, U.K.). The mixture is shaken thoroughly for 30 seconds with toluene (5 ml). Experiments have shown that >90% [14C]oestrone and <0.1% [3H]oestrone-3-sulphate is removed from the aqueous phase by this treatment. A portion (2 ml) of the organic phase was removed, evaporated and the 3H and 14C content of the residue determined by scintillation spectrometry. The mass of oestrone-3-sulphate hydrolysed is calculated from the 3H counts obtained (corrected for the volumes of the medium and organic phase used, and for recovery of [14C]oestrone added) and the specific activity of the substrate.
A sulphatase—positive human placenta was used as a source of placental microsomes. Tissue was homogenised and nuclei and cell debris removed by centrifugation at 2000×g for 30 min. Placental microsomes were obtained by centrifugation of the resulting supernatant at 100,000×g for 1 h.
For inhibition studies placental microsomes (125 μg/ml) were incubated in the absence or presence of inhibitors (1 pm-1.0 μM) with ^3H estrone sulphate (E1S, 2×10^5 dpm adjusted to 20 μM with unlabelled E1S for 60 mins. [4-^14C E1] (7×10^3 dpm) was added to correct for procedural losses and free and sulphated steroids separated by solvent partition using toluene. A portion of the solvent was removed and the ^3H and ^14C content determined by liquid scintillation spectrometry.

In another series the test system is MCF-7 cells. Put plainly: Plate Assay in MCF-7 cells. Conditions: Homo sapiens, MCF7. In kind it is cell-based.
In a further series the test system is T47D cells. Put plainly: Effect of Halo-EMATEs on T47D cell growth (plate assay). Conditions: for inhibition at 1 µM / inhibition at 10 µM: Homo sapiens, 24 h. Details: key to Morphology: +: has effect on cell morphology. In kind it is cell-based. As to the method: Effect of Halo-EMATES on T47D Cell Growth (Plate Assay)
T47D receptor positive breast cancer cells were seeded into a 96 well cell culture plate and allowed to grow until approximately 70% confluent. Cells were treated with either vehicle (controls, tetrahydrofuran in medium) or halo-EMATEs (1 or 10 μM) and cultured for a further 24 h. At the end of this period effects of the drugs on cell numbers were determined using a microtitre plate assay (Cell Titre 96 cell proliferation assay, Promega). In this assay the conversion of substrate by untreated cells at the end of the culture period was set at 100%.

For series [1] the following is noted: cited from earlier work.
The target of a further series is T3, E1-STS (Homo sapiens, UniProt P08842).
T3 construct: endogenous in cells; host or cells: MCF-7
T3 sequence (P08842 22-583): T1 sequence (P08842 22-583)
Conditions: intact MCF-7 cells, 0.1 mM; cited from earlier work.

Regarding `COc1cc2c(cc1OS(N)(=O)=O)CC[C@@H]1[C@@H]2CC[C@]2(C)C(=O)CC[C@@H]12` [2-methoxyoestrone-3-O-sulphamate], in the series on rats (rat, in vivo), the oestrogenicity result is “devoid of oestrogenicity”. Further, the “potency as steroid sulphatase inhibitor” value on steroid sulphatase is reported as “equipotent with EMATE”.
Regarding `C[C@]12CC[C@@H]3c4cc(Br)c(OS(N)(=O)=O)cc4CC[C@H]3[C@@H]1CCC2=O` [Compound 4, 2-Bromooestrone 3-O-sulphamate], the IC50 on steroid sulphatase (STS) was determined as 1.65 nM. For the same compound, testing at 10 µM in the series on MCF-7 cells gave an inhibition of 33%. In the series with T47D cells, the Morphology entry was “+”.
For `C[C@]12CC[C@@H]3c4cc(I)c(OS(N)(=O)=O)cc4CC[C@H]3[C@@H]1CCC2=O` [Compound 7, 2-Iodooestrone 3-O-sulphamate] the same measures were 6.1 nM, 25% and “+”.
In turn, `C[C@]12CC[C@@H]3c4cc(Cl)c(OS(N)(=O)=O)cc4CC[C@H]3[C@@H]1CCC2=O` [Compound 10, 2-Chloroestrone 3-O-sulphamate] displayed an IC50 at steroid sulphatase (STS) of 0.8 nM. Besides, at 10 µM the inhibition in the series on MCF-7 cells was 35%. Moreover, in the series on T47D cells, the Morphology result is “+”, testing at 1 µM gave an inhibition of 1% and the inhibition at 10 µM came to 7.5%.
At steroid sulphatase (STS), `C[C@]12CCC3c4cc(F)c(OS(N)(=O)=O)cc4CCC3C1CCC2=O` (stereo partly shown) [Compound 13, 2-Fluorooestrone-3-O-sulphamate] came in with an IC50 of 5.6 nM. Moreover, in the series with T47D cells, the Morphology entry is on record as “+”, the inhibition at 1 µM is below 1% and the inhibition at 10 µM was found to be 30%.
Regarding `C[C@]12CC[C@@H]3c4ccc(OS(=O)(=O)O)cc4CC[C@H]3[C@@H]1CCC2=O` [Compound E1S, oestrone sulphate], the half-life in blood in series [1] was 10 to 12 h.
In the case of `CC12CCC3c4ccc(OS(N)(=O)=O)cc4CCC3C1CCC2=O` (stereo not shown) [EMATE, oestrone-3-O-sulphamate], the “inhibition of E1-STS activity” value at E1-STS is “more than 99%”. Moreover, the “oral uterotrophic activity relative to estradiol” value in the series on rats (rats, oral) was 100 times.
As for oestrone-3-N-sulphamate, the E1-STS inactivation result on steroid sulphatase is “weaker non-time-dependent inactivators”.
For oestrone-3-S-sulphamate, on steroid sulphatase, the E1-STS inactivation result is recorded as “weaker non-time-dependent inactivators”.
